Results from patent US9932331B2, “Phenyl tetrahydroisoquinoline compound substituted with heteroaryl” (TAISHO PHARMACEUTICAL CO., LTD, priority 2014, dated 2018).
Where a name gives a salt, the structure may show the parent alone.

Target: T1, human NHE3 (Homo sapiens, UniProt P48764)
T1 sequence (P48764 26-834): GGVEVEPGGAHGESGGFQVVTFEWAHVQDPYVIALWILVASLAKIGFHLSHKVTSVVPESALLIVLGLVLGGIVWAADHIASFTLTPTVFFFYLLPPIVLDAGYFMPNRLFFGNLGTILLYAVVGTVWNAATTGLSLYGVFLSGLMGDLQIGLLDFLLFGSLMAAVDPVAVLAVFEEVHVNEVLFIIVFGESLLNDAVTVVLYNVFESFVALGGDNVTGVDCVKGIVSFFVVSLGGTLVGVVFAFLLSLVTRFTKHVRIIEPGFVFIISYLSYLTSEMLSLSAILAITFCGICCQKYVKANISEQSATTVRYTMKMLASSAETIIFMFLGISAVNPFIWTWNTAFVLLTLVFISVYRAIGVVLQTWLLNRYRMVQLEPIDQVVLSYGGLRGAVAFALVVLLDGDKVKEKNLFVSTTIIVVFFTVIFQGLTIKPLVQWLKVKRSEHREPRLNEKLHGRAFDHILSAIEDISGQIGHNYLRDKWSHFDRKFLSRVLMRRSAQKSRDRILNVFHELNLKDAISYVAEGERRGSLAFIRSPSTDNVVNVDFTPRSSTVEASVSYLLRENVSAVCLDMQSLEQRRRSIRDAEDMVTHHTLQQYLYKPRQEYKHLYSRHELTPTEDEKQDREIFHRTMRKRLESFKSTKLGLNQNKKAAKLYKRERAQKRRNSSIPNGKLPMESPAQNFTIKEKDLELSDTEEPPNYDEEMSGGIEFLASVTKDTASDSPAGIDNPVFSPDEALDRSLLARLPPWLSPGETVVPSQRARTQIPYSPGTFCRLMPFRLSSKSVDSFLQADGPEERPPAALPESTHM
Experiment: NHE3 inhibition test (recovery of intracellular pH in cell line stably expressing human NHE3)
Format: cell-based
Details: OK cells deficient in endogenous NHE stably expressing human NHE3; BCECF fluorescence, initial rate of pH recovery; read-out: human NHE3 inhibitory activity IC50
Method: (1) Preparation of Cell Line Deficient in Endogenous NHE
The cell line deficient in endogenous NHE was prepared according to the method of Jacques Pouyssegur et al. (Proc. Natl. Acad. Sci. USA. 1984, Vol. 81, 4833-4837) using opossum kidney (OK) cells (ATCC).
(2) Preparation of Expression Plasmid and Cell Line Stably Expressing Human NHE3
The expression plasmid was constructed by inserting a human NHE3 (SLC9A3, Accession No. NM_004174) cDNA sequence (GeneCopoeia, Inc.) into a pcDNA3.2/V5-DEST vector (Life Technologies Corp.).
The OK cells deficient in endogenous NHE were transfected with the constructed human NHE3 expression plasmid to prepare stably expressing cells. The transfection was carried out by electroporation using a Nucleofector 2b device (Lonza Group Ltd.). A stably expressing cell line was selected in medium supplemented with 500 μg/mL Geneticin (Life Technologies Corp.) and isolated.
NHE3 activity measurement method using cell: The activity was determined by using the NHE3-mediated recovery of intracellular pH occurring after intracellular acidification, as an index. The intracellular pH was measured by a partial modification of the pH-sensitive fluorescent indicator method reported by Tsien et al. (Proc. Natl. Acad. Sci. USA., 1984, 81, 7436-7440).
The cell line stably expressing human NHE3 was inoculated on a poly-D-lysine-coated 96-well plate (Greiner Bio-one) and cultured overnight. […] Then, Hank's balanced salt buffer solution containing 0.25 μM BCECF-AM (Dojindo Laboratories) was added to the cells, which were then incubated at 37° C. for 30 minutes. […] The cells thus incubated in the NH4Cl buffer solution were washed with NH4Cl-free buffer solution (133.8 mM choline chloride, […], 5 mM glucose, 4.7 mM KCl, 1.25 mM CaCl2, 1.25 mM MgCl2, 0.97 mM K2HPO4, 0.23 mM KH2PO4, pH 7.4) to decrease the intracellular pH. After the washing step, 70 μL of a test compound solution prepared with the NH4Cl-free buffer solution was added to the cells, and 70 iμL of sodium ion-containing buffer solution (133.8 mM NaCl, 10 mM HEPES, 5 mM glucose, 4.7 mM KCl, 1.25 mM CaCl2, 1.25 mM MgCl2, 0.97 mM Na2HPO4, 0.23 mM NaH2PO4, pH 7.4) was added thereto in a measurement system FDSS6000 (Hamamatsu Photonics K.K.) to start the recovery of pH. The recovery of intracellular pH was monitored using BCECF fluorescence (excitation wavelength: 480 nm, fluorescence wavelength: 520 to 560 nm), and the initial rate of the pH recovery was plotted. The recovery of pH without test compound was defined as the maximum recovery, and the test compound concentration necessary to inhibit 50% of the maximum recovery was calculated as an IC50 value.

Row | Molecule | IC50 [nM]
1 | 1,3-Bis[14-(4-{3-[(4S)-6,8-dichloro-2-methyl-1,2,3,4-tetrahydroisoquinolin-4-yl]phenyl}-1H-1,2,3-triazol-1-yl)-3,6,9,12-tetraoxatetradec-1-yl]urea hydrochloride [Example 7-44] | 7.6
2 | Cc1cc(-c2cccc([C@@H]3CN(C)Cc4c(Cl)cc(Cl)cc43)c2)cnn1 [Example 1-5, (4S)-6,8-Dichloro-2-methyl-4-[3-(6-methylpyridazin-4-yl)phenyl]-1,2,3,4-tetrahydroisoquinoline trifluoroacetate] | 58.1
3 | CN1Cc2c(Cl)cc(Cl)cc2[C@H](c2cccc(-c3ccnc(C#N)c3)c2)C1 [Example 1-7, 4-{3-[(4S)-6,8-Dichloro-2-methyl-1,2,3,4-tetrahydroisoquinolin-4-yl]phenyl}pyridine-2-carbonitrile] | 626
4 | CN1Cc2c(Cl)cc(Cl)cc2C(c2cccc(-c3cn(C)nn3)c2)C1 (stereo not shown) [Example 1-8, 6,8-Dichloro-2-methyl-4-[3-(1-methyl-1H-1,2,3-triazol-4-yl)phenyl]-1,2,3,4-tetrahydroisoquinoline] | 126
5 | CNc1cc(-c2cccc([C@@H]3CN(C)Cc4c(Cl)cc(Cl)cc43)c2)ccn1 [Example 1-9, 4-{3-[(4S)-6,8-Dichloro-2-methyl-1,2,3,4-tetrahydroisoquinolin-4-yl]phenyl}-N-methylpyridin-2-amine trifluoroacetate] | 561
6 | COc1cc(-c2cccc([C@@H]3CN(C)Cc4c(Cl)cc(Cl)cc43)c2)ccn1 [Example 1-11, (4S)-6,8-Dichloro-4-[3-(2-methoxypyridin-4-yl)phenyl]-2-methyl-1,2,3,4-tetrahydroisoquinoline trifluoroacetate] | 1600
7 | CCc1cc(-c2cccc([C@@H]3CN(C)Cc4c(Cl)cc(Cl)cc43)c2)ccn1 [Example 1-12, (4S)-6,8-Dichloro-4-[3-(2-ethylpyridin-4-yl)phenyl]-2-methyl-1,2,3,4-tetrahydroisoquinoline trifluoroacetate] | 650
8 | COc1cc(-c2cccc([C@@H]3CN(C)Cc4c(Cl)cc(Cl)cc43)c2)ncn1 [Example 1-13, (4S)-6,8-Dichloro-4-[3-(6-methoxypyrimidin-4-yl)phenyl]-2-methyl-1,2,3,4-tetrahydroisoquinoline trifluoroacetate] | 271
9 | CNc1cc(-c2cccc([C@@H]3CN(C)Cc4c(Cl)cc(Cl)cc43)c2)ncn1 [Example 1-15, 6-{3-[(4S)-6,8-Dichloro-2-methyl-1,2,3,4-tetrahydroisoquinolin-4-yl]phenyl}-N-methylpyrimidin-4-amine trifluoroacetate] | 117
10 | Cc1cc(-c2cccc([C@@H]3CN(C)Cc4c(Cl)cc(Cl)cc43)c2)sn1 [Example 1-19, (4S)-6,8-Dichloro-2-methyl-4-[3-(3-methyl-1,2-thiazol-5-yl)phenyl]-1,2,3,4-tetrahydroisoquinoline hydrochloride] | 856

Results, then the molecule that gave them:

Row | IC50 [nM] | Molecule
11 | 217 | CN1Cc2c(Cl)cc(Cl)cc2[C@H](c2cccc(-c3ccncc3)c2)C1 [Example 1-1, (4S)-6,8-Dichloro-2-methyl-4-[3-(pyridin-4-yl)phenyl]-1,2,3,4-tetrahydroisoquinoline]
12 | 217 | CN1Cc2c(Cl)cc(Cl)cc2[C@H](c2cccc(-c3cccnc3)c2)C1 [Example 1-2, (4S)-6,8-Dichloro-2-methyl-4-[3-(pyridin-3-yl)phenyl]-1,2,3,4-tetrahydroisoquinoline trifluoroacetate]
13 | 392 | CN1Cc2c(Cl)cc(Cl)cc2[C@H](c2cccc(-c3ccn[nH]3)c2)C1 [Example 1-3, (4S)-6,8-Dichloro-2-methyl-4-[3-(1H-pyrazol-3-yl)phenyl]-1,2,3,4-tetrahydroisoquinoline]
14 | 257 | CN1Cc2c(Cl)cc(Cl)cc2[C@H](c2cccc(-c3cn[nH]c3)c2)C1 [Example 1-4, (4S)-6,8-dichloro-2-methyl-4-[3-(1H-pyrazol-4-yl)phenyl]-1,2,3,4-tetrahydroisoquinoline]
15 | 373 | CN1Cc2c(Cl)cc(Cl)cc2[C@H](c2cccc(-c3ccccn3)c2)C1 [Example 1-6, (4S)-6,8-Dichloro-2-methyl-4-[3-(pyridin-2-yl)phenyl]-1,2,3,4-tetrahydroisoquinoline trifluoroacetate]
16 | 169 | CN1Cc2c(Cl)cc(Cl)cc2[C@H](c2cccc(-c3cncnc3)c2)C1 [Example 1-10, (4S)-6,8-Dichloro-2-methyl-4-[3-(pyrimidin-5-yl)phenyl]-1,2,3,4-tetrahydroisoquinoline trifluoroacetate]
17 | 173 | CN1Cc2c(Cl)cc(Cl)cc2[C@H](c2cccc(-c3cnccn3)c2)C1 [Example 1-14, (4S)-6,8-Dichloro-2-methyl-4-[3-(pyrazin-2-yl)phenyl]-1,2,3,4-tetrahydroisoquinoline trifluoroacetate]
18 | 184 | CN1Cc2c(Cl)cc(Cl)cc2[C@H](c2cccc(-c3ncccn3)c2)C1 [Example 1-16, (4S)-6,8-Dichloro-2-methyl-4-[3-(pyrimidin-2-yl)phenyl]-1,2,3,4-tetrahydroisoquinoline trifluoroacetate]
19 | 109 | CN1Cc2c(Cl)cc(Cl)cc2[C@H](c2cccc(-c3ccnnc3)c2)C1 [Example 1-17, (4S)-6,8-Dichloro-2-methyl-4-[3-(pyridazin-4-yl)phenyl]-1,2,3,4-tetrahydroisoquinoline trifluoroacetate]
20 | 95.7 | CN1Cc2c(Cl)cc(Cl)cc2[C@H](c2cccc(-c3cn(C)cn3)c2)C1 [Example 1-18, (4S)-6,8-Dichloro-2-methyl-4-[3-(1-methyl-1H-imidazol-4-yl)phenyl]-1,2,3,4-tetrahydroisoquinoline]
21 | 208 | CN1Cc2c(Cl)cc(Cl)cc2[C@H](c2cccc(-c3cccnn3)c2)C1 [Example 1-20, (4S)-6,8-Dichloro-2-methyl-4-[3-(pyridazin-3-yl)phenyl]-1,2,3,4-tetrahydroisoquinoline hydrochloride]
22 | 1170 | CN1Cc2c(Cl)cc(Cl)cc2[C@H](c2cccc(-c3ccc[nH]3)c2)C1 [Example 1-21, (4S)-6,8-Dichloro-2-methyl-4-[3-(1H-pyrrol-2-yl)phenyl]-1,2,3,4-tetrahydroisoquinoline]
23 | 306 | CN1Cc2c(Cl)cc(Cl)cc2[C@H](c2cccc(-c3ncco3)c2)C1 [Example 1-22, (4S)-6,8-Dichloro-2-methyl-4-[3-(1,3-oxazol-2-yl)phenyl]-1,2,3,4-tetrahydroisoquinoline hydrochloride]
24 | 3220 | CN1Cc2c(Cl)cc(Cl)cc2[C@H](c2cccc(-c3ccco3)c2)C1 [Example 1-23, (4S)-6,8-Dichloro-4-[3-(furan-2-yl)phenyl]-2-methyl-1,2,3,4-tetrahydroisoquinoline]
25 | 89.3 | CN1Cc2c(Cl)cc(Cl)cc2[C@H](c2cccc(-c3nn[nH]n3)c2)C1 [Example 2-1, (4S)-6,8-dichloro-2-methyl-4-[3-(2H-tetrazol-5-yl)phenyl]-1,2,3,4-tetrahydroisoquinoline]
